US20230270753A1, “COMBINATIONS OF GABAA ALPHA 5 AGONISTS AND SV2A INHIBITORS AND METHODS OF USING IN THE TREATMENT OF COGNITIVE IMPAIRMENT” (AGENEBIO, INC., priority 2020, published 2023)
Read-outs that look alike come from different tables or passages of the source.

Legend:
Format in all cases: in vivo, rat
aged-impaired rats [1] = test system: aged-impaired rats
aged-impaired rats [2] = assay: Radial arm maze, 5-hr delay, acute Compound 1 via PO (Example 7); details: Compound 1 10 mg/kg PO 30-40 min before information trial
Excerpt: All rats were screened in a standardized assessment of spatial cognition before the commencement of drug studies. The background assessment used a well-established Morris water maze protocol as described in detail elsewhere (Gallagher et al, 1993). Briefly, the rats were trained for 8 days (three trials per day) to locate a camouflaged escape platform that remained at the same location throughout training in a water maze. Every sixth trial consisted of a probe trial (free swim with no escape platform) that served to assess the development of a spatially localized search for the escape platform. During these probe trials, a learning index was generated from the proximity of the rat to the escape platform and was used to define impairment in the aged rats. The learning index is the sum of weighted proximity scores obtained during probe trials, with low scores reflecting a search near the escape platform and high scores reflecting searches farther away from the platform (Gallagher et al, 1993). Cue training (visible escape platform) occurred on the last day of training to test for sensorimotor and motivational factors independent of spatial learning. Aged rats with impaired spatial memory performance (i.e., those with learning index scores outside the young ‘normative’ range) but successful cued training performance were used for the studies as described below. […]

aged-impaired rats [3] = assay: Water maze, acute and chronic Compound 1 (Example 7); details: Compound 1 10 mg/kg IP
Excerpt: Rats were trained and tested in a novel water maze environment to assess the effect of the treatments. The water maze used here was housed in a different room and was surrounded by curtains with a novel set of patterns relative to the maze used for initial assessment of cognitive status. The training and testing protocol used was identical to the spatial learning-activated protocol described in Haberman et al., (2008, Proceedings of the National Academy of Sciences USA, 105, 10601-10606). The task required rats to swim to a […] escape platform at a fixed location in the presence of spatial cues for 8 training trials with an inter-trial interval of 8 min. An hour after the last training trial, rats were given a probe test in the absence of the escape platform (free swim) to assess the memory of the platform location as measured by time spent searching at the target location.
To assess the acute and chronic effects of Compound 1 treatment, rats received 15-16 days of drug injections with assessment on the water maze on the first day (acute effect) and last day (chronic effect) of treatment. Different surrounding spatial cues and escape location in the water maze were used for the initial and subsequent assessments. Compound 1 was given at 10 mg/kg using intraperitoneal injection (IP) at a volume of 1 ml/kg. […]

COCc1nnc2n1Cc1c(C#Cc3cnc(OC)s3)ncn1-c1ccc(Cl)cc1-2 [Compound 1]
efficacy of Compound 1 on its own in the radial arm maze (aged-impaired rats [1]; Compound 1 2.5 mg/kg IP alone): subtherapeutic | efficacy of Compound 1 on its own in the radial arm maze (aged-impaired rats [1]; Compound 1 5 mg/kg IP alone): subtherapeutic | number of errors in the radial arm maze vs vehicle (aged-impaired rats [2]): fewer errors | time spent in the target quadrant of the Morris Water Maze (aged-impaired rats [3]; acute (first day of treatment)): spent more time in the target quadrant | time spent in the target quadrant of the Morris Water Maze (aged-impaired rats [3]; chronic (last day of 15-16 days of injections)): spent more time in the target quadrant
